From US9353075B2, “Disubstituted beta-lactones as inhibitors of N-acylethanolamine acid amidase (NAAA)” (The Regents of the University of California, priority 2011, dated 2016)

Assays:
[1] = Chemical stability in PBS buffer pH 7.4; type: physicochemical; settings: phosphate-buffered saline, 0.01M PBS pH 7.4, 37° C., read-out: Stability in PBS buffer, pH 7.4 t1/2
Procedure: Chemical stability of select compounds was evaluated under physiological pH conditions (0.01M Phosphate-Buffered Saline, pH 7.4) for up to 24 h. Stock solutions of each compound (10 mM) were prepared freshly in DMSO. Each compound was incubated at a final concentration of 10 μM (1% DMSO) in pre-heated buffer (0.01M Phosphate-Buffered Saline (PBS), pH 7.4 at 37° C.). The sample solutions were divided into aliquots in glass vials (pre-heated at 37° C.) for each time point. The samples were maintained at 37° C. in the UPLC/MS Autosampler during the study (no shaking). A reference solution of each compound (final concentration: 10 μM at 1% DMSO) in pre-heated CH3CN (37° C.) was prepared from the stock solutions (10 mM in DMSO). The reference solutions were maintained at 37° C. in the UPLC/MS Autosampler during the study (no shaking). An internal standard (100 nM) was added to the sample and reference solutions. For each time point, the samples were analyzed directly by LC/MS without any further sample preparation. The samples were analyzed (triplicate injection) by monitoring the MS trace by Multiple Reaction Monitoring (MRM). The compound concentration (expressed as %) was calculated by dividing the peak area at each time point by the peak area at t=0 min. The reference solution was analyzed at the beginning (t=0 min.), and at the end of the study (t=24 h). The apparent half-lives (t1/2) of the disappearance of compound were calculated by a one-phase decay equation using a non-linear regression of compound concentration versus time.
The analyses were performed on a Waters ACQUITY UPLC/MS TQD system consisting of a TQD (Triple Quadropole Detector) Mass Spectrometer equipped with an Electrospray Ionization interface and a Photodiode Array Detector. The analyses were run on an ACQUITY UPLC BEH C18 1.7 μm 2.1×50 mm column with a VanGuard BEH C18 1.7 μm pre-column at 40° C. The mobile phase was 0.1% HCOOH in H2O (A) and 0.1% HCOOH in CH3CN (B) using a linear gradient: 0-0.2 min.: 5% B, 0.2-2.2 min.: 5-95% B, 2.2-2.3 min.: 95-5% B, 2.3-3 min.: 5% B with flow rate at 0.5 mL/min. […]

r-NAAA = r-NAAA (Rattus norvegicus (Rat), UniProt Q5KTC7); experiment: r-NAAA inhibition, rat lung lysosomal NAAA preparation, UPLC/MS; type: biochemical; settings: for inhibition at 3 µM: read-out: r-NAAA % inhib. @ 3 μM
Procedure: Lysosomal NAAA protein preparation were obtained by homogenizing male Sprague-Dawley rat lungs (Charles River) in 20 mM Tris-HCl buffer pH 7.4 containing 0.32M sucrose. Samples were centrifuged at 800×g for 15 minutes at 4° C. Supernatants were then centrifuged at 12,000 g for 30 minutes at 4° C. Pellets were then resuspended in PBS pH 7.4 and subjected to a freeze/thaw cycle at −80° C. The suspension was finally centrifuged at 105,000×g for 1 hour at 4° C. The supernatant was then used in the enzymatic assay.
NAAA protein preparation was pre-incubated with various concentrations of test compounds or vehicle control in 100 mM NaH2PO4/Citrate buffer, 1% Triton-X, 3 mM DTT (pH 4.5) for 30 minutes at 37° C. Samples were then incubated with heptadecenoylethanolamide (50 μM, Avanti Polar Lipids) at 37° C. for 30 min. The reaction was terminated by addition of cold methanol containing heptadecanoic acid (NuCheck Prep) as internal standard. Samples were then analyzed by UPLC/MS (Acquity, Waters). Heptadecenoic and heptadecanoic acids were eluted on an Acquity UPLC BEH C18 column (50 mm length, 2.1 mm i.d., 1.7 μm pore size, Waters) isocratically at 0.5 mL/min for 1.5 min with a solvent mixture of 95% methanol and 5% water, both containing 0.25% Acetic Acid and 5 mM Ammonium Acetate. The column temperature was 40° C. Electrospray ionization was in the negative mode, capillary voltage was 0.5 kV, cone voltage was […], desolvation temperature was 500° C. N2 was used as drying gas at a flow rate of 1000 L/hour and a temperature of 500° C. The [M−H]^− ion was monitored in the selected-ion monitoring mode (m/z values: heptadecenoic acid 267.37, heptadecanoic acid 269.37). Calibration curves were generated using commercial heptadecenoic acid (NuCheck Prep). Inhibition of NAAA activity was calculated as reduction of heptadecenoic acid in the samples compared to vehicle controls. IC50 values were calculated by non-linear regression analysis of log [concentration]/inhibition curves using GraphPad Prism 5 (GraphPad Software Inc., CA—USA) applying a standard slope curve fitting.

h-NAAA [2] = biological target: T1, h-NAAA (Homo sapiens (Human), UniProt Q02083); experiment: Fluorogenic h-NAAA assay; type: biochemical
Procedure: (§1) The assay was run in Optiplate 96-wells black plates, in a total reaction volume of 200 mL. NAAA protein preparations (4 ng) were pre-incubated for 10 minutes with various concentrations of test compounds or vehicle control (5% DMSO) in 100 mM citrate/phosphate buffer (pH 4.5) containing 3.0 mM DTT, 0.1% Triton X-100, 0.05% BSA, 150 mM NaCl. N-(4-methyl-2-oxo-chromen-7-yl)-hexadecanamide was used as a substrate (5.0 μM) and the reaction carried over for 30 minutes at 37° C. Fluorescence in the samples was quantified in a Perkin Elmer Envision plate reader using an excitation wavelength of 360 nm and emission 460 nm. IC50 values were calculated by non-linear regression analysis of log [concentration]/inhibition curves using GraphPad Prism 5 (GraphPad Software Inc., CA—USA) applying a standard slope curve fitting.
as §1, with “μL.” for “mL.”, “preparation (4.0 μg) was” for “preparations (4 ng) were”, “min” for “minutes”, “The” for “Fluorescence in the”, “were then read” for “was quantified”

h-NAAA [3] = biological target: T1, h-NAAA; experiment: UPLC/MS h-NAAA assay; type: biochemical
Procedure: NAAA protein preparation (10 μg) was pre-incubated with various concentrations of test compound or vehicle control in 100 mM NaH2PO4, 100 mM Tri Sodium Citrate Dehydrate, 0.1% Triton-X 100, 3 mM DTT, pH 4.5 for 30 min at 37° C. Duplicate samples were then incubated with 50 μM C17:1 10-cis-heptadecenoylethanolamide (Avanti Polar Lipids, Alabaster, Ala.—USA) at 37° C. for 30 minutes. The reaction was terminated by the addition of 0.2 mL of cold methanol containing 1 nmol of heptadecanoic acid (NuChek Prep, Elysian, Minn.—USA) as internal standard. Samples were then analyzed by UPLC/MS. Heptadecenoic and heptadecanoic acids were eluted on an Acquity UPLC BEH C18 column (50 mm length, 2.1 mm i.d., 1.7 μm pore size, Waters) isocratically at 0.5 mL/min for 1.5 min with a solvent mixture of 95% methanol and 5% water, both containing 0.25% Acetic Acid and 5 mM Ammonium Acetate. The column temperature was 40° C. Electrospray ionization was in the negative mode, capillary voltage was 2.7 kV, cone voltage was 45 V, extractor voltage was 3 V. The source temperature was 150° C. with a desolvation temperature of 400° C. N2 was used as drying gas at a cone flow of 100 L/hour and a desolvation flow of […]. The [M−H]-ion was monitored in the selected-ion monitoring mode (m/z values: heptadecenoic acid 267.37, heptadecanoic acid 269.37). Calibration curves were generated using commercial heptadecenoic acid (NuCheck Prep) Inhibition of NAAA activity was calculated as reduction of heptadecenoic acid in the samples compared to vehicle controls. IC50 values were calculated by non-linear regression analysis of log [concentration]/inhibition curves using GraphPad Prism 5 (GraphPad Software Inc., CA—USA) applying a standard slope curve fitting.

[4] = system: 48/80-induced scratching (mast cell degranulation); experiment: Compound 48/80-induced scratching in mice; type: in vivo, mouse; settings: topical, single dose, 48/80 30 mg per kg s.c.
Procedure: (§2) The methods include the following. Itching in mice was induced with DNFB as previously described. Additional studies were done with 48/80 model (an inducer of mast cell degranulation). 48/80 was given subcutaneously (30 mg per kg).

DNFB-induced scratching = DNFB-induced scratching in mice; type: in vivo, mouse; settings: topical, single dose
Procedure: The methods included the following. Dermatitis was produced in mice using 2-4 dinitrofluorobenzene (DNFB) as described by Buckley and Nijkamp (1994), Am J Respir Grit Care Med 149:400-7. Mice were sensitized on two consecutive days with a 0.5% DNFB solution applied to the shaved abdomen. At day 8, the ears were challenged with a 0.2% DNFB solution. Ear thickness was determined by using a micrometer. Scratching was evaluated as number of episodes per 60 minutes period. Data were analysed by ANOVA followed by the Bonferroni's test. See also Hargreaves K, et al (1988), Pain 32: 77-88 for related information.
as §2, with “kg). Data were analysed by ANOVA followed by Bonferroni's test for multiple comparisons.” for “kg).”

T1 sequence (Q02083 29-359): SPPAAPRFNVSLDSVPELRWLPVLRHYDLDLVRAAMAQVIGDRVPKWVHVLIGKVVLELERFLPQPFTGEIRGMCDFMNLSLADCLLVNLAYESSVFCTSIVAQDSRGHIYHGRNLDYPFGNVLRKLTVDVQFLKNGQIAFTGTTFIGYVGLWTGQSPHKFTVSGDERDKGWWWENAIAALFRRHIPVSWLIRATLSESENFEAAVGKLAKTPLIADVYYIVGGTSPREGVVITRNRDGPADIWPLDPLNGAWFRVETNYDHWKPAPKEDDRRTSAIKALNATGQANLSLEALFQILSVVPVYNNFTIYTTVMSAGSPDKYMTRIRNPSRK
r-NAAA, sequence (Q5KTC7 34-362): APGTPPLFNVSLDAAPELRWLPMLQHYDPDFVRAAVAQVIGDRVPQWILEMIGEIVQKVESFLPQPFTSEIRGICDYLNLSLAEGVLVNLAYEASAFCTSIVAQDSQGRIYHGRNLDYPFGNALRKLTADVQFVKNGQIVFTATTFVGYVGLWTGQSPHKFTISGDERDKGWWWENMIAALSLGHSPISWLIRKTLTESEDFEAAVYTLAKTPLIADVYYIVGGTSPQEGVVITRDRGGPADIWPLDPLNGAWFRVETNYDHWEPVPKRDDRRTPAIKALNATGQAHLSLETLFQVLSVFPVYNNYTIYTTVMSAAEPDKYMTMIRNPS

Row | SMILES | inhibition at 3 µM (r-NAAA) | IC50 (h-NAAA [2]) | 48/80-induced scratching [4] | DNFB-induced scratching (DNFB-induced scratching) | further results
1 | O=C(N[C@H]1COC1=O)OCCCCCc1ccccc1 |  |  |  |  | half-life at 10 μM [1]: 23 min
2 | CC[C@H]1OC(=O)[C@@H]1NC(=O)OCCCCCc1ccccc1 (relative stereo) [Example 47, 5-Phenylpentyl-N-[(2R*,3R*)-2-ethyl-4-oxo-oxetan-3-yl]-carbamate] | 92% | 4 nM |  |  | 
3 | CC[C@@H]1OC(=O)[C@@H]1NC(=O)OCCCCCc1ccccc1 (relative stereo) [Example 49, 5-Phenylpentyl-N-[(2S*,3R*)-2-ethyl-4-oxo-oxetan-3-yl]-carbamate] | 89% | 9 nM |  |  | 
4 | CC(C)[C@H]1OC(=O)[C@@H]1NC(=O)OC(C)(C)CCCCc1ccccc1 (relative stereo) [Example 55, (1,1-Dimethyl-5-phenyl-pentyl)-N-[(2R*,3R*)-2-isopropyl-4-oxo-oxetan-3-yl]-carbamate] | 98% | 12 nM |  |  | 
5 | CC(C)(C)[C@H]1OC(=O)[C@@H]1NC(=O)OCCCCCc1ccccc1 (relative stereo) [Example 56, 5-Phenylpentyl-N-[(2R*,3R*)-2-tert-butyl-4-oxo-oxetan-3-yl]-carbamate] | 75% | 267 nM |  |  | 
6 | CC(C)(C)[C@@H]1OC(=O)[C@@H]1NC(=O)OCCCCCc1ccccc1 (relative stereo) [Example 58, 5-Phenylpentyl-N-[(2S*,3R*)-2-tert-butyl-4-oxo-oxetan-3-yl]-carbamate] | 67% | 278 nM |  |  | 
7 | C[C@@H]1OC(=O)[C@@H]1NC(=O)OCCCCC1CCCCC1 [Example 19, 4-cyclohexylbutyl-N-[(2S,3R)-2-methyl-4-oxo-oxetan-3-yl]-carbamate] |  | 8 nM |  |  | IC50 (r-NAAA): 20 nM; IC50 (h-NAAA [3]): 9 nM
8 | C[C@H]1C[C@H]2[C@@H]3CCC4=CC(=O)C=C[C@]4(C)[C@@]3(F)[C@@H](O)C[C@]2(C)[C@@]1(O)C(=O)CCl [clobetasol, reference compound] |  |  | without effect | increased scratching | 
9 | C[C@@H]1C[C@H]2[C@@H]3CCC4=CC(=O)C=C[C@]4(C)[C@@]3(F)[C@@H](O)C[C@]2(C)[C@@]1(O)C(=O)CO [dexamethasone, reference compound] |  |  | without effect | increased scratching | 
10 | CC(CN1c2ccccc2Sc2ccccc21)N(C)C (centres unmarked) [promethazine, reference compound] |  |  | effective | without effect | 
